Test results as given in patent US20260092074A1, “Annelated Pyridines as Steroidogenesis Inhibitors, Preparation Method and Use Thereof” (Guangzhou Vinnocent Pharmaceutical Limited, priority 2022, published 2026).

How the values were obtained:
human CYP11B1 = target: T1, human CYP11B1 (Homo sapiens, UniProt P15538); experiment: Inhibition of hCYP11B1 in transfected V79 cells; format: cell-based; conditions: hamster V79 cells expressing human CYP11B1; substrate 11-deoxycortisol 200 nM
T1 construct: expressed in transfected cells
T1 sequence (P15538 25-503): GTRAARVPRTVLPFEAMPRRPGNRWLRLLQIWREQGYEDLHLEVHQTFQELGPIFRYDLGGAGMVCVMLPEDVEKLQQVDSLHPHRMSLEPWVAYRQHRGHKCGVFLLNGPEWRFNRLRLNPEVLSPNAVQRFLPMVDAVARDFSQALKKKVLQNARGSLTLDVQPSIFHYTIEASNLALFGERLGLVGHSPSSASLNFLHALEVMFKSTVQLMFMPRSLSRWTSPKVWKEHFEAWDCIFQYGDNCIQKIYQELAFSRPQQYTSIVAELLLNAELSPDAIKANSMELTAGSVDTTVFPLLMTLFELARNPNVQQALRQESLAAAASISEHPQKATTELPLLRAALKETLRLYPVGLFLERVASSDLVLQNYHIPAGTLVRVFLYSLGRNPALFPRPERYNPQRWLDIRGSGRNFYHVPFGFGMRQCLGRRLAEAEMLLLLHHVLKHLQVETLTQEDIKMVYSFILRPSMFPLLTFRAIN
Outline: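 Reactions started with 200 nM 11-deoxycortisol, ran for 30 min and were stopped with ethyl acetate, after a 2 h compound preincubation. The host was stably transfected V79 hamster cells carrying human CYP11B1 plus rat P450 reductase. Percent inhibition, from LC-MS/MS or HPLC (260 nm) quantitation of substrate and product, gave the IC50.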

human CYP11B2 = target: T2, human CYP11B2 (Homo sapiens, UniProt P19099); experiment: Inhibition of hCYP11B2 in transfected V79 cells; format: cell-based; conditions: hamster V79 cells expressing human CYP11B2; substrate 11-deoxycorticosterone 200 nM
T2 construct: expressed in transfected cells
T2 sequence (P19099 25-503): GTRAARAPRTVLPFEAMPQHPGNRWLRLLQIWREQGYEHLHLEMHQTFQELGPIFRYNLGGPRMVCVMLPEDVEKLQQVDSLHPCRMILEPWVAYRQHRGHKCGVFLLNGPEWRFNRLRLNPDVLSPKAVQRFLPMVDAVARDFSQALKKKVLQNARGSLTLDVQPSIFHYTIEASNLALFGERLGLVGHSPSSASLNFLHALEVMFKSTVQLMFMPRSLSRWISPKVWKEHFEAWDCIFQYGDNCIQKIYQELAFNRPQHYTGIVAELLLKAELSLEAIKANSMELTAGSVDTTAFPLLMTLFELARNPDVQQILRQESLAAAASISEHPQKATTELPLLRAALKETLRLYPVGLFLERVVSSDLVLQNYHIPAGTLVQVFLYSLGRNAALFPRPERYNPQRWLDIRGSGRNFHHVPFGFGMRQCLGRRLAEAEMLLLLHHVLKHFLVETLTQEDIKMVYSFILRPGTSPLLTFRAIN
Outline: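 The substrate (200 nM, 30 min) was added after a 2 hour compound pre-incubation in lentivirus-transduced V79 cells stably expressing human CYP11B2 plus rat NADPH-P450 reductase.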

Row | IC50 (human CYP11B1) [nM] | IC50 (human CYP11B2) [nM] | Structure (SMILES)
1 | 0.7 | 0.2 | N#Cc1ccc(-c2cncc3c2SCCN3S(=O)(=O)c2cccc(F)c2)cc1 [S9, 4-(4-((3-Fluorophenyl)sulfonyl)-3,4-dihydro-2H-pyrido[4,3-b][1,4]thiazin-8-yl)benzonitrile]
2 | 1.9 | 0.2 | N#Cc1ccc(-c2cncc3c2SCCN3S(=O)(=O)c2ccc3ccccc3c2)cc1 [S23, 4-(4-(Naphthalen-2-ylsulfonyl)-3,4-dihydro-2H-pyrido[4,3-b][1,4]thiazin-8-yl)benzonitrile]
3 | 1.82 | 0.04 | N#Cc1ccc(-c2cncc3c2SCCN3S(=O)(=O)c2cccnc2)cc1 [S25, 4-(4-(Pyridin-3-ylsulfonyl)-3,4-dihydro-2H-pyrido[4,3-b][1,4]thiazin-8-yl)benzonitrile]
4 | 14 | 25 | N#Cc1ccc(S(=O)(=O)N2CCSc3c(-c4ccc5[nH]ncc5c4)cncc32)cc1 [S48, 4-((8-(1H-Indazol-5-yl)-2,3-dihydro-4H-pyrido[4,3-b][1,4]thiazin-4-yl)sulfonyl)benzonitrile]
5 | 1370 | 34.8 | N#Cc1ccc(-c2cncc3c2SCCN3C(=O)c2cccc(F)c2)cc1 [S4, 4-(4-(3-Fluorobenzoyl)-3,4-dihydro-2H-pyrido[4,3-b][1,4]thiazin-8-yl)benzonitrile]
6 | 349 | 14 | N#Cc1ccc(-c2cncc3c2SCCN3S(=O)(=O)C2CN(C(=O)c3cccc(C#N)c3)C2)cc1 [S71, 3-(3-((8-(4-Cyanophenyl)-2,3-dihydro-4H-pyrido[4,3-b][1,4]thiazin-4-yl)sulfonyl)azetidine-1-carbonyl)benzonitrile]
7 | 54 | 0.7 | O=S(=O)(c1ccc(Cl)s1)N1CCSc2c(-c3cc4cc(Cl)ccc4o3)cncc21 [S60, 8-(5-Chlorobenzofuran-2-yl)-4-((5-chlorothiophen-2-yl)sulfonyl)-3,4-dihydro-2H-pyrido-[4,3-b][1,4]thiazine]
8 | 703 | 6.9 | N#Cc1ccc(-c2cncc3c2SCC(=O)N3)cc1 [S99, 4-(3-Oxo-3,4-dihydro-2H-pyrido[4,3-b][1,4]thiazin-8-yl)benzonitrile]

The next lines start with the compound.

Row | Structure (SMILES) | IC50 (human CYP11B1) [nM] | IC50 (human CYP11B2) [nM]
9 | O=C(C1CN(Cc2cccc(F)c2)C1)N1CCOc2c(-c3cc4cc(Cl)ccc4o3)cncc21 [O95, (8-(5-Chlorobenzofuran-2-yl)-2,3-dihydro-4H-pyrido[4,3-b][1,4]oxazin-4-yl)(1-(3-fluorobenzyl)azetidin-3-yl)methanone] | 4590 | 41
10 | N#Cc1ccc(-c2cncc3c2OCCN3C(=O)c2cccnc2)cc1 [O30, 4-(4-Nicotinoyl-3,4-dihydro-2H-pyrido[4,3-b][1,4]oxazin-8-yl)benzonitrile] | 4690 | 110
11 | N#Cc1ccc(-c2cncc3c2OCCN3C(=O)CCc2cccc(F)c2)cc1 [O48, 4-(4-(3-(3-Fluorophenyl)propanoyl)-3,4-dihydro-2H-pyrido[4,3-b][1,4]oxazin-8-yl)benzonitrile] | 117 | 2.1
12 | COc1ccc(S(=O)(=O)N2CCOc3c(-c4ccc(C#N)cc4)cncc32)cc1 [O8, 4-(4-((4-Methoxyphenyl)sulfonyl)-3,4-dihydro-2H-pyrido[4,3-b][1,4]oxazin-8-yl)benzonitrile] | 0.02 | 0.02
13 | N#Cc1ccc(-c2cncc3c2OCCN3C(=O)c2ccc([N+](=O)[O-])cc2)cc1 [O26, 4-(4-(4-Nitrobenzoyl)-3,4-dihydro-2H-pyrido[4,3-b][1,4]oxazin-8-yl)benzonitrile] | 1450 | 22.4
14 | N#Cc1ccc(-c2cncc3c2OCCN3C(=O)C2CNC2)cc1 [O56, 4-(4-(Azetidine-3-carbonyl)-3,4-dihydro-2H-pyrido[4,3-b][1,4]oxazin-8-yl)benzonitrile] | 292 | 5.1
15 | Clc1ccc2oc(-c3cncc4c3OCCN4)cc2c1 [O108, 8-(5-Chlorobenzofuran-2-yl)-3,4-dihydro-2H-pyrido[4,3-b][1,4]oxazine] | 359 | 7.9
